According to US20110308790A1, “IN SITU METHANOGENESIS MODELING AND RISK ANALYSIS” (CONOCOPHILLIPS COMPANY, priority 2010, published 2011):

System: microbes in production water
Test: biomass control with NaOCl solution (viable count CFU/mL)
Assay type: cell-based
Details: 0.03-0.6% NaOCl, 23 hours, presence or absence of oxygen
Method: The procedures to test the effectiveness, and the minimum dose, of NaOCl that is required to eliminate biomass in the injection line and injection well-bore during the field biogasification process are the following. The initial population of microbes in production water, placed in tubes that were to be incubated under defined oxygen saturation conditions was determined either by direct counting of cells using a Petroff Hausser bacterial counting chamber, or by counting the colony forming units (CFU/mL) of microorganisms that developed on specialized media after incubation for specific period. The population of microbes that were present in the incubated tubes (also with added carbon source-coal and nutrient additions) was determined over time after methane was detected in the headspace of the tubes. Thereafter, the same tubes were amended with different concentrations (0.6%, 0.3%, 0.15%, 0.1%, 0.075%, 0.06%, 0.03% and 0%) of NaOCl solution followed by incubation of the tubes for 23 hours to allow the biomolecule-oxidizing action of the solution to come to appreciable completion. Immediately after this, the population of viable microbes (i.e. CFU/mL) in the NaOCl-amended tubes was determined by plating a specific volume of the culture on defined solid medium.

OCl [NaOCl, sodium hypochlorite]
inactivation of microorganisms (viable CFU/mL): effective in inactiving microorganisms
